≈ marks a conversion by molar mass, not a printed value.

In the test the test system is multidrug-resistant M. tuberculosis Peru isolate. Description: microbe, parasite or virus in culture. Type of test: cell-based. Conditions: Mycobacterium tuberculosis, 336 h, read-out: MIC MDR-TB.
For the compound `O=C(/C=C/c1ccc([N+](=O)[O-])o1)c1ccc(N2CCOCC2)cc1` [Compound 1], the MIC was 0.976 µg/mL (≈ 2.97 µM).

For the compound `O=C(/C=C/c1ccc([N+](=O)[O-])o1)c1ccc(N2CCCCC2)cc1` [Compound 2], the MIC was found to be 1.95 µg/mL (≈ 5.98 µM).

With `CCN(CC)c1ccc(C(=O)/C=C/c2ccc([N+](=O)[O-])o2)cc1` [Compound 3], the MIC is 0.488 µg/mL (≈ 1.55 µM).

Consider `CC[C@@H](CO)NCCN[C@@H](CC)CO` [Ethambutol], for which the MIC was determined as 8 µg/mL (≈ 39.2 µM).

Take `NNC(=O)c1ccncc1` [Isoniazid, reference compound]: the MIC was more than 500 µg/mL.

As to `CN(Cc1cnc2nc(N)nc(N)c2n1)c1ccc(C(=O)N[C@@H](CCC(=O)O)C(=O)O)cc1` [Methotrexate, reference compound], the MIC stood at 250 µg/mL (≈ 550 µM).

As to `O=[N+]([O-])c1cn2c(n1)OC[C@@H](OCc1ccc(OC(F)(F)F)cc1)C2` [Pretomanid], the MIC turned out to be 0.488 µg/mL (≈ 1.36 µM).

On to `CO[C@H]1/C=C/O[C@@]2(C)Oc3c(C)c(O)c4c(O)c(c(/C=N/N5CCN(C)CC5)c(O)c4c3C2=O)NC(=O)/C(C)=C\C=C\[C@H](C)[C@H](O)[C@@H](C)[C@@H](O)[C@@H](C)[C@H](OC(C)=O)[C@@H]1C` [Rifampicin], for which the MIC was more than 500 µg/mL.

These data come from publication PMC7400135, “3-(5-Nitrofuran-2-yl)prop-2-en-1-one Derivatives, with Potent Antituberculosis Activity, Inhibit A Novel Therapeutic Target, Arylamine N-acetyltransferase, in Mycobacteria” (Antibiotics, 2020).
